Test results: ChEMBL document CHEMBL1201862, “PubChem BioAssay data set” (2004)
The source made the active and inactive calls.

Experiments:
SN12K1 = experiment: cells; type: functional; settings: Homo sapiens
P388/ADR = experiment: cells; type: functional; settings: Mus musculus
P388 = experiment: cells; type: functional; settings: Mus musculus
[1] = viability loss in THP-1 monocytes – THP-1 cells, cytotoxicity control for Vif-APOBEC3G degradation inhibitor project, dose response (AID 1117359); type: functional; settings: THP-1
[2] = alpha-synuclein stem-loop luciferase translation blockers – H4 neuroglioma cells, luminescence, confirmation (AID 1988); type: functional, cell-based
[3] = luciferase reporter signal suppression in cells – H4 neuroglioma cells, luminescence, dose response (AID 1990); type: functional, cell-based
[4] = Luminescence Cell-Based Dose Response HTS to Identify Inhibitors of 5'UTR Stem-Loop Driven Prion Protein mRNA Translation in H4 Neuroglioblastoma Cells. [Related pubchem assays: 1827 (Project Summary), 1813 (Primary HTS)]; type: functional
[5] = HEK-293T viability loss after treatment – luminescence, T-cell screen hits, cytotoxicity control for TCR NF-kB inhibitor project, dose response (AID 489026); type: functional, cell-based;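 also: cells exposed to compound about 14 hours before the viability readout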
Cytochrome P450 3A4 [6] = target: T1, Cytochrome P450 3A4 (Homo sapiens, UniProt P08684); settings: Potency
Escherichia coli = experiment: microbe, parasite or virus in culture
Cytochrome P450 3A4 [7] = target: T1, Cytochrome P450 3A4
Cytochrome P450 2D6 = Cytochrome P450 2D6 (Homo sapiens, UniProt P10635);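 also: CYP2D6 member of a cytochrome P450 panel assay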
Cytochrome P450 2C19 = Cytochrome P450 2C19 (Homo sapiens, UniProt P33261); experiment: Cytochrome panel assay with activity outcomes. Panel member name: p450-cyp2c19 Compounds with AC50 equal or less than 10 uM are considered active; type: functional; settings: read-out: AC50
[8] = target: T2, Heat shock factor protein 1 (Mus musculus, UniProt P38532); experiment: decrease of HSF1-responsive luciferase luminescence – cell-based, NIH3T3, dose retest, confirmation (AID 2382); type: functional;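 also: NIH3T3 fibroblasts with HSF1-driven luciferase reporter stressed by proteasome inhibitor MG132; luminescence from HSF1-driven luciferase expression after 8 hours of MG132 stress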
T2 sequence (P38532 whole entry): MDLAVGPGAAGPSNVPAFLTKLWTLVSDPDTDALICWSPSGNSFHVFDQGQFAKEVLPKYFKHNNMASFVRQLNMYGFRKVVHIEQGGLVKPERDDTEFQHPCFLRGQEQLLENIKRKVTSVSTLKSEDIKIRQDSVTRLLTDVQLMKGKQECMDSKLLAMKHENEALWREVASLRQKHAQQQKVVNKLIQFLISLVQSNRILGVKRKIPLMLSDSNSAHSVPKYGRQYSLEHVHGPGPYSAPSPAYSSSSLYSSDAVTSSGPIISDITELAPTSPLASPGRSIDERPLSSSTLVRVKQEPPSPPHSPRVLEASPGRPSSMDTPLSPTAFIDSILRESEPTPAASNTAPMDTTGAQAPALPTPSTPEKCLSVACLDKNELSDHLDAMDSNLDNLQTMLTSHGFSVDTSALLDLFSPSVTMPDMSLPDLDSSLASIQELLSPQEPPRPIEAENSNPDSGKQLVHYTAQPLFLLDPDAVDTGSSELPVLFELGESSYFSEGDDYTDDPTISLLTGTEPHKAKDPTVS

Cytochrome P450 2C9 = Cytochrome P450 2C9 (Homo sapiens, UniProt P11712)
INS1 = experiment: INS-1E survival protection against cytokine death – cell-based, luminescence, retest, dose response (AID 449756); type: functional; settings: Rattus norvegicus;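 also: cell death triggered by IL-1 beta plus TNF-alpha plus IFN-gamma mixture; protective hits raise ATP signal compared with cytokine alone wells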
[9] = NIH3T3 cell viability loss – ATP luminescence, mouse fibroblasts, counter-screen, dose response (AID 2010); type: functional, cell-based;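 also: cells exposed to compound for about 90 hours before reading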
[10] = Trypanosoma cruzi growth suppression in host cells – NIH3T3 host cells, beta-gal luminescence, confirmation (AID 2044); type: functional, cell-based;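 also: intracellular parasites grown in NIH/3T3 mouse fibroblasts as host cells; luminescent beta-galactosidase reporter signal from transgenic T. cruzi replicating inside host cells; inhibitors lower the luminescence signal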
[11] = THP-1 cell cytotoxicity, dose response, cytotoxicity control for non-replicating M. tuberculosis project (AID 489025); type: functional
cells [12] = type: functional
[13] = Vero E6 cell cytotoxicity, dose response, cytotoxicity control for non-replicating M. tuberculosis project, secondary assay (AID 492998); type: functional, VeroE6; settings: Vero C1008
cells [14] = type: functional, cell-based
cells [15] = type: functional, cell-based; remark: listed apart in the source
[16] = microbe, parasite or virus in culture; type: functional; settings: Mycobacterium tuberculosis

T1 sequence (P08684 whole entry): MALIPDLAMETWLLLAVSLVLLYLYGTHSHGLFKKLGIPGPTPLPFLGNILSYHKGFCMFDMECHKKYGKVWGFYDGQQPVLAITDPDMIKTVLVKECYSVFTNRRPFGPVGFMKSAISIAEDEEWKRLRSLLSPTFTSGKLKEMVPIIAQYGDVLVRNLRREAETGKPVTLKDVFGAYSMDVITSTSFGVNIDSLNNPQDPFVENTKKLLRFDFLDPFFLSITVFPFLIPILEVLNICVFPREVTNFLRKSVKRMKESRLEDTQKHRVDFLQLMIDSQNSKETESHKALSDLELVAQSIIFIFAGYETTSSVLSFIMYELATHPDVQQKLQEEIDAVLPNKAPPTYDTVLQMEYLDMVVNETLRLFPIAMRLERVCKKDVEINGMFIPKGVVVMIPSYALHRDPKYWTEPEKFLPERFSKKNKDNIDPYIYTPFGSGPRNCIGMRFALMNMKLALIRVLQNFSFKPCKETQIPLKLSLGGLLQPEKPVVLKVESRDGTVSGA
Chain of Cytochrome P450 2D6 (P10635 whole entry): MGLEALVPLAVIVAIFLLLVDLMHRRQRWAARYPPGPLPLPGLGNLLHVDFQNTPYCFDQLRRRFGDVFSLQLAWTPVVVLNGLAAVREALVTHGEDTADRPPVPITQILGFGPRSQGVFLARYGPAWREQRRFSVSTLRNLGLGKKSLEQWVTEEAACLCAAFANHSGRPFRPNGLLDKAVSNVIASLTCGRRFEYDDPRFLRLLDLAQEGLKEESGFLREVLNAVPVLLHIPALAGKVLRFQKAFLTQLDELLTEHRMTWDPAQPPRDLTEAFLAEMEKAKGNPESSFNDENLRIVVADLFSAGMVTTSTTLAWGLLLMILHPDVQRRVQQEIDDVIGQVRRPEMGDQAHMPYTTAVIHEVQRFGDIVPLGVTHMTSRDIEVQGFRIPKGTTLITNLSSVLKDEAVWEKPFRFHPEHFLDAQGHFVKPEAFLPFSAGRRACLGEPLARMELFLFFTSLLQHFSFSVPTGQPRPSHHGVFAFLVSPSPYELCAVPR
Chain of Cytochrome P450 2C9 (P11712 whole entry): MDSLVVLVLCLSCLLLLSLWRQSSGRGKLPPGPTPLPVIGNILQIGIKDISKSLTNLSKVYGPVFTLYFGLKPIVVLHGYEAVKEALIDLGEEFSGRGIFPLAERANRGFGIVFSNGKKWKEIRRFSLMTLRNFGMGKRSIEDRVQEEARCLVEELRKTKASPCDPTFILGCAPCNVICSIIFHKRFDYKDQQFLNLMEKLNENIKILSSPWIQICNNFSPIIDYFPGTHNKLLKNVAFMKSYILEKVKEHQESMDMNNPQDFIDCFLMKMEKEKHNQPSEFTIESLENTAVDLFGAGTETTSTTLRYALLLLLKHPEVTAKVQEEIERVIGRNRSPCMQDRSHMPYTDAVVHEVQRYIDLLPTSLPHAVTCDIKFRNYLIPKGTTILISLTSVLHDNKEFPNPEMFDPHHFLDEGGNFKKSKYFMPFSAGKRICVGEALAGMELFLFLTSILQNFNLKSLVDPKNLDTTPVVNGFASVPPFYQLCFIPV
Chain of Cytochrome P450 2C19 (P33261 whole entry): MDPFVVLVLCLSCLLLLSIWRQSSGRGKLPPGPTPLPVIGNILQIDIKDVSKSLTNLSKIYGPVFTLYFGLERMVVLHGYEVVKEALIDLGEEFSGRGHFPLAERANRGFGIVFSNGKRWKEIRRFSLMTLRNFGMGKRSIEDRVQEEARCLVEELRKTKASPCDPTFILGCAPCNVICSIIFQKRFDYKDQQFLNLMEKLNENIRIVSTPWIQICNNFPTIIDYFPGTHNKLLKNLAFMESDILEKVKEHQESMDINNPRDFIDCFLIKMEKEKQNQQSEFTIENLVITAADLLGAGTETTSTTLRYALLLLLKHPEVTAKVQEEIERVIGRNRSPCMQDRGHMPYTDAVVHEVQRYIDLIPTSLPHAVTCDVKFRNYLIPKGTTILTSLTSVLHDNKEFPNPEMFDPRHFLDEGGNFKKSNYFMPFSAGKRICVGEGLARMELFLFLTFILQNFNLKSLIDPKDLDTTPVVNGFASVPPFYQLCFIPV

C#CCN1CCN(C(=S)N/N=C(\C)c2ccccn2)CC1
GI50 (SN12K1): 0.01 µM (active) | GI50 (P388/ADR): < 0.01 µM (active) | GI50 (P388): < 0.01 µM (active)

COc1ccccc1CNCC(=O)Nc1ccc(N2CCOCC2)cc1
CC50 [1]: 30.7 µM (active)

Clc1ccc(CSc2nncn2-c2ccc3c(c2)OCCO3)cc1
EC50 [2]: > 120 µM (not active) | EC50 [3]: > 120 µM (not active) | EC50 [4]: > 120 µM (not active) | IC50 [5]: > 80 µM (inactive)

Brc1ccc2[nH]c3c(C4=NCCC4)nccc3c2c1
GI50 (SN12K1): 9.98 µM (inactive) | GI50 (P388/ADR): 9.57 µM (inactive) | GI50 (P388): 9.51 µM (inactive)

CNC(=O)OCc1c(CO)nc(SC)n1C
GI50 (SN12K1): > 100 µM (inactive) | GI50 (P388/ADR): > 100 µM (inactive) | GI50 (P388): > 100 µM (inactive)

CCCCC/C=C\C/C=C\CCCCCCCC(=O)O [LINOLEIC ACID]
AC50 (Cytochrome P450 3A4 [6]): 31.6 µM (inconclusive)

CC(=O)c1cc(CN2CCN(C3CCCCC3)C(CCO)C2)cs1 (stereo unspecified)
AC50 (Escherichia coli): 27.7 µM (active)

O=C(c1cccc(F)c1)N1CCC2(CC1)CCN(c1ccc(-c3ccccc3)cc1)CC2
AC50 (Cytochrome P450 3A4 [7]): inconclusive | AC50 (Cytochrome P450 2D6): 10 µM (inconclusive)

CC(C)=CC1C(C(=O)O)C1(C)C (stereo unspecified) [CHRYSANTHEMIC ACID]
GI50 (SN12K1): > 750 µM (inactive) | GI50 (P388/ADR): 488 µM (inactive) | GI50 (P388): > 750 µM (inactive)

NN
GI50 (SN12K1): 96.8 µM (inactive) | GI50 (P388/ADR): 68.5 µM (inactive) | GI50 (P388): 105 µM (inactive)

COc1ccc(O)c(C#N)c1C#N.COc1ccc(OC)c(C#N)c1C#N
GI50 (SN12K1): > 100 µM (inactive) | GI50 (P388/ADR): > 100 µM (inactive) | GI50 (P388): > 100 µM (inactive)

CCC(C)(NC(=O)c1ccccn1)C(=O)NC1CCCCC1 (stereo unspecified)
AC50 (Cytochrome P450 3A4 [7]): inconclusive | AC50 (Cytochrome P450 2C19): 10 µM (inconclusive) | EC50 [8]: > 195 µM (not active) | AC50 (Cytochrome P450 2C9): 17.8 µM (inconclusive)

C[C@@H]1CN(c2c(F)c(F)c3c(=O)c(C(=O)O)cn(C4CC4)c3c2F)C[C@H](C)N1 [ORBIFLOXACIN]
AC50 (Escherichia coli): 0.657 µM (active)

c1ccc(CSc2ccc(-c3ccccn3)nn2)cc1
AC50 (INS1): 5.5 µM (active) | EC50 [9]: > 30 µM (not active) | EC50 [10]: 1.99 µM (active) | CC50 [11]: 14.2 µM (active) | IC50 (cells [12]): 15.1 µM (active) | CC50 [13]: 12 µM (active) | EC50 (cells [14]): 85.6 µM (active) | EC50 (cells [15]): 28.4 µM (active) | CC50 [16]: 36.9 µM (active)

O=C(CN1C(=O)NC2(CCCCC2)C1=O)NCc1cccs1
AC50 (Escherichia coli): 34.2 µM (active)

CCOc1ccc(C(=O)CCN2CCCCCC2)cc1
CC50 [11]: > 40 µM (active) | IC50 (cells [12]): 17.2 µM (active) | CC50 [13]: > 20 µM (active) | CC50 [16]: > 40 µM (active)
